Test results as given in publication PMC10141580, “Cyclic Dichalcogenides Extend the Reach of Bioreductive Prodrugs to Harness Thiol/Disulfide Oxidoreductases: Applications to seco-Duocarmycins Targeting the Thioredoxin System” (ACS Central Science, 2023).
Read-outs that look alike come from different tables or passages of the source.

How the values were obtained:
A549 cells = test: Resazurin cytotoxicity assay, A549, 72 h; conditions: read-out: IC50(nM): A549
Experimental: (§2) We used A549 lung cancer and HeLa cervical cancer cell lines for initial screening of the prodrugs.
Fi gure S9: Cell ular resazurin-based cytotoxi ci ty as s a y.
Dose -response curves were calculated from at least 27 incremental single concentrations over a range
of at least three log units. Individual experiments with annotated experiment numbers are shown for each prodrug

[1] = tested on: athymic nu/nu NMRI mice with BxPC-3 tumors; test: BxPC-3-bearing tolerability study; assay type: in vivo, mouse; conditions: twice weekly 3 mg/kg, five injections, BxPC-3-bearing NMRI mice
From the text: A larger study was run in 50 athymic nu/nu NMRI mice (10 animals per group) inoculated with BxPC-3 pancreatic cancer cells since the study had been intended as a therapeutic efficacy trial (see section 2.9). Similarly solubilized SS66C derivatives were now included. In this study, the tumor growth rates in all animals were much lower than in any previous or subsequent trials (Figure S16c), so we could only extract data about drug tolerability, not antitumor efficacy. Still, the study confirmed that the solubilized P-SS60-, Me-SS66C-, and P-SS66C- prodrugs of -CBI-TMI, and the corresponding carbamate hydrolysis control P-CC60-CBI-TMI, were tolerated with twice weekly injections at 3 mg/kg, over a course of five injections, in all animals, since no distinct differences of body weight or animal health were seen as compared to the vehicle control (Figure S16a).
a Body weights b Body weights
$ Absolute Tumour Volumes d Absolute Tumour Volumes
Irinotecan Irinotecan Irinotecan Irinotecan
(a,b) Bodyweights (means);
confidence interval). […] Dotted vertical lines indicate days

mouse = test: Tolerability for repeated dose administration in vivo (summary); conditions: for remarks: repeated dose administration; for well-tolerated dose: weekly or twice-weekly administration
HeLa-HRE cells = test: Resazurin cytotoxicity assay, HeLa-HRE, 48 h; conditions: for IC50(HeLa)/IC50(A549): ratio HeLa vs A549
Experimental: as §2
HeLa-HRE cells were treated with prodrugs of the
Dose -response curves were calculated from at least 27 incremental single concentrations over a
range of at least three log units.

4T1 murine breast cancer = test: 4T1 orthotopic breast cancer efficacy study; assay type: in vivo; conditions: 4T1 in Balb/c mice; CBI prodrugs 3 mg/kg
From the text: (§1) We then moved to in vivo anticancer efficacy trials of these prodrugs. […] As one model we chose the syngeneic murine breast cancer 4T1, implanted orthotopically (at the native tissue site) into the fat pad of immunocompetent Balb/c mice (i.e., offering a realistic immune system and tumor microenvironment). This model gives rapid, aggressive tumor growth.[52] As a second model, we chose to xenograft human BxPC-3 pancreatic adenocarcinoma cells into immunodeficient hosts. This is a slower-growing model, with low metastasis, that can be more resistant to traditional antimitotic therapy.[53],[54] Mice were implanted, randomized once tumors reached 100–150 mm^3 volume, and treated once or twice weekly with prodrug or control compounds typically at 3 mg/kg (8–12 animals per condition, Figure 10a). Tumors were measured by caliper during the assay and weighed at termination.
7. 2. in vivo efficacy mouse studies
4T1 efficacy study BxPC-3 efficacy study a Absolute tumour volumes b Absolute tumour volumes […]
days after tumor implantation days after tumor implantation c Relative tumour volumes d Relative tumour volumes […]
e RTV! fi"al day of followu# f ex viv tumour weights g RTV! fi"al day of followu# h ex viv tumour weights (. mice remain in all *roups) (for animals left at day 31)(all *roups have statistical power)(day "2/ all animals left) […]
vehicle(1x)(1x)(1x) (2x)(2x) […]
P-##"0-#$%-&'%P-!!"0-#$%-&'%P-!!"0-#$%-()%P-!!"0-#$%-&'% %rinotecan %rinotecan P-##"0-#$%-&'%P-!!"0-#$%-()%P-!!"0-#$%-&'%P-!!"0-#$%-&'% P-!!"0-#$%-&'% P-!!"0-#$%-&'% […]
i Body weights $ Body weights […]
implant in Balb/c mice, 8 mice per group; (b, d,g,h,j): BxPC-3 subcutaneous xenograft in NMRi mice, 8 mice per […]
treatment (m e d ia n); (e,g) in vivo caliper measurement of relative tum or volumes at final day of followup [last day when all mice in all groups remain in the study] […]
tumor weights at termination of study (only mice not terminated on ethical grounds before the indicated days were harvested); (i,j) Bodyweights (means).
(BxPC-3 study); dotted vertical lines indicate days of [potential] treatment.

[2] = tested on: human BxPC-3 pancreatic adenocarcinoma; test: BxPC-3 xenograft efficacy study; assay type: in vivo, athymic nu/nu NMRI mice
From the text: as §1
Finally, we tested P-SS60-CBI-TMI in the slower-growing pancreatic cancer model BxPC-3 in athymic NMRI mice (8 animals per group). […]

Balb/c mice = test: Moderate repeated dosing tolerability study; assay type: in vivo; conditions: once weekly
Experimental: Next, a moderate repeated dosing study in Balb/c mice (3 animals per group) tested the importance of solubilizing the prodrugs.
Methods for in vivo animal studies
All in vivo studies were conducted as contract research together with React ionBiology Eur ope G mbH (Freiburg,
Germany), EPO – Experimental Pharmacology & Oncology GmbH (Berlin, Germany); Bient a/ Enam ine Lt d. (Kyiv,
Ukraine) and Leit at – Managing Technologies (Barcelona, Spain), adhering to the respective animal welfare
Mice were kept in individually ventilated cages at constant temperature (22±2 °C, air-conditioned) and humidity (45
– 65%), under optimum hygienic conditions with 10 – 15 air changes per hour. A cycle of 12 h artificial fluorescent
light ning and 12 h darkness was applied , and animal behavior was monitored daily throughout the studies. The
animals received food and water ad libit um.
To evaluate toxicity of selected compounds, dose level selection studies within dose range from 0.1 mg/kg to
10 mg/kg were performed by intravenous administration into Balb /c mice. Each dose for each tested compound
was administered in one mouse.
changes and clinical signs of gross toxicity three tim es per week for 21 consecutive days of post-dosing period.
After the first week of observation without adverse events, two doses for each test compound were selected as
tolerated. These two doses were tested in two additional mice for confirmation of toler ability. Additional animals
consecutive days of post-dosing period. Toxicity of repeated administrations was tested wit h t hr ee repeat ed pr e-
selected doses at a dosing interval of 7 days. Mortality, body weight changes, and clinical signs of gross toxicity
were monitored after each drug administration and three times per week for 21 consecutive days after the first
compound administration. Bleed ing with subsequent hematological tests, clinical chemistry parameters analysis
(ALT, AST, ALP, LDH, creatine kinase, creatinine, urea, cholesterol, and triglycerides), and necropsy with
macroscopic inspection were performed on the terminal day of the repeated dosing-regime.
To test tolerability of selected compounds in vivo, female BALB/c mice were randomized by weight into seven
groups of t hree animals.

[3] = read-out: IC50(nM): HeLa, HeLa, 48 h

Structure (SMILES)	IC50 (A549 cells) [nM]	tolerability [1]	remarks (mouse)	well-tolerated dose (mouse) [mg/kg]	IC50 (HeLa-HRE cells; [3]) [nM]	IC50(HeLa)/IC50(A549) (HeLa-HRE cells)	effect on tumor growth (4T1 murine breast cancer)	IC50 (HeLa-HRE cells; initial screening, A549 and HeLa cell lines) [nM]	tumor suppression vs irinotecan ([2]; BxPC-3, 3 mg/kg vs irinotecan 10 mg/kg)	tumor growth rate suppression ([2]; BxPC-3, once-weekly 3 mg/kg, over 4 weeks)	outcome of repeated dosing at 3 mg/kg (Balb/c mice)	IC50 (A549 cells; Homo sapiens) [nM]	IC50 (HeLa-HRE cells; Homo sapiens, HeLa, 48 h, read-out: IC50(nM): HeLa) [nM]
COc1cc2cc(C(=O)N3CC(CCl)c4c3cc(OC(=O)N3CCN(C)C5CSSCC53)c3ccccc43)[nH]c2c(OC)c1OC (mixture of isomers) [Me-SS66C-CBI-TMI]	17	tolerated	well tolerated	3	220								
COc1cc2cc(C(=O)N3CC(CCl)c4c3cc(OC(=O)N3CCN(C)C5CSSCC53)c3ccccc43)[nH]c2c(OC)c1OC (mixture of isomers) [Me-SS66T-CBI-TMI]	5.9		well tolerated	3	59	10							
COc1cc2cc(C(=O)N3C[C@@H](CCl)c4c3cc(OC(=O)N(CCC(=O)N3CCN(C)CC3)C3CCCCC3)c3ccccc43)[nH]c2c(OC)c1OC [P-CC60-CBI-TMI]	1700	tolerated	well tolerated	3	1250	0.7	delayed tumor growth in the first week of treatment	> 1000					
COc1cc2cc(C(=O)N3C[C@@H](CCl)c4c3cc(OC(=O)N(CCC(=O)N3CCN(C)CC3)[C@H]3CCSSC3)c3ccccc43)[nH]c2c(OC)c1OC [P-SS60-CBI-TMI]	180	tolerated	well tolerated	3	420	2.3	maintained statistically significant tumor suppression until study termination		almost identical tumor suppression	ca. 70%	tolerated		
COc1cc2cc(C(=O)N3C[C@@H](CCl)c4c3cc(OC(=O)N3CCN(C(=O)CCC(=O)N5CCN(C)CC5)[C@H]5CSSC[C@H]53)c3ccccc43)[nH]c2c(OC)c1OC [P-SS66C-CBI-TMI]		tolerated	well tolerated	3		17						12	200
